Data from patent US20230085307A1, “PYRIDAZINONE COMPOUND AND HERBICIDE” (NISSAN CHEMICAL CORPORATION, priority 2019, published 2023).

Test system: oval-leafed pondweed
Test: Test Example 2: herbicidal activity, application during weed generation under submerged conditions (Table 17, symbol C)
Type: in vivo, oval-leafed pondweed (Monochoria vaginalis)
Conditions: AAH 320 g/ha; application during weed generation, submerged conditions
Outline: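 3-wk visual-criteria score after one water-surface dose. Emulsion formulation, water-diluted to set rate; applied at 1–2 leaf stage; alluvial soil, 4 cm standing water; seeds co-sown; greenhouse 25–30° C.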

**Q.** For CCCC(=O)Oc1c(C)nn(C)c(=O)c1-c1c(-c2ccc(F)cc2OCC)sc2cc(C)ccc12 [3-058], which “herbicidal effect rating, C: oval-leafed pondweed” value is on record?
**A.** The value was 4 (Herbicidal rate of 70% or more and less than 90%).

**Q.** CCCC(=O)Oc1c(C)nn(C)c(=O)c1-c1c(-c2ccc(OC)cc2)sc2cc(OC)ccc12 [3-069] was tested. Which “herbicidal effect rating, C: oval-leafed pondweed” value did it give?
**A.** The value was 4 (Herbicidal rate of 70% or more and less than 90%).

Test system: false cleavers
Test: Test Example 5: herbicidal effect by foliage application, plastic box (Table 20, symbol Q)
Type: in vivo, false cleavers (Galium spurium)
Conditions: foliage application, 320 g/ha, three weeks after application
Outline: (§1)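 Post-emergence foliar test in sterilized diluvial soil. Compound applied as water-diluted emulsion at a predetermined rate to 14-day-old plants; evaluation at three weeks.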

**Q.** For CCCC(=O)Oc1c(C)nn(C)c(=O)c1-c1c(-c2ccc(F)cc2OCC)sc2cc(C)ccc12 [3-058], which “Q: false cleavers, herbicidal effect grade” value is on record?
**A.** The value was 5 (Herbicidal rate of 90% or more (almost completely withered)).

**Q.** Which “Q: false cleavers, herbicidal effect grade” value does the source give for CCCC(=O)Oc1c(C)nn(C)c(=O)c1-c1c(-c2ccc(OC)cc2)sc2cc(OC)ccc12 [3-069] here?
**A.** Its value is 4 (Herbicidal rate of 70% or more and less than 90%).

Test system: chickweed
Test: Test Example 4: herbicidal effect by soil treatment (Table 19, symbol P)
Type: in vivo, common chickweed (Stellaria media)
Conditions: amount of applied herbicide 320 g/ha
Outline: (§2)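 Scoring uses the grading scale of an earlier test, three weeks post-application. Treatment consists of spraying a diluted emulsion formulation across the surface of sterilized diluvial soil in which seeds are buried near 1.5 cm deep; boxes are kept in a greenhouse between 25° C. and 30° C.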

**Q.** For CCCC(=O)Oc1c(C)nn(C)c(=O)c1-c1c(-c2ccc(F)cc2OCC)sc2cc(C)ccc12 [3-058], which “P: chickweed, herbicidal effect grade” value is on record?
**A.** Its value is 4 (Herbicidal rate of 70% or more and less than 90%).

**Q.** How did the “P: chickweed, herbicidal effect grade” value turn out when CCCC(=O)Oc1c(C)nn(C)c(=O)c1-c1c(-c2ccc(OC)cc2)sc2cc(OC)ccc12 [3-069] was run?
**A.** Its value is 3 (Herbicidal rate of 40% or more and less than 70%).

Test system: southern crabgrass
Test: Test Example 4: herbicidal effect by soil treatment (Table 19, symbol F)
Type: in vivo, southern crabgrass (Digitaria ciliaris)
Conditions: amount of applied herbicide 320 g/ha
Outline: as §2

**Q.** How did the “F: southern crabgrass, herbicidal effect grade” value (shortened to “F: southern crabgrass”) turn out when CCCC(=O)Oc1c(C)nn(C)c(=O)c1-c1c(-c2ccc(F)cc2OCC)sc2cc(C)ccc12 [3-058] was run?
**A.** The value was 5 (Herbicidal rate of 90% or more (almost completely withered)).

**Q.** Which “F: southern crabgrass” value does the source give for CCCC(=O)Oc1c(C)nn(C)c(=O)c1-c1c(-c2ccc(OC)cc2)sc2cc(OC)ccc12 [3-069] here?
**A.** The value was 0 (Herbicidal rate of 5% or less (almost no effect)).

Test system: green foxtail
Test: Test Example 4: herbicidal effect by soil treatment (Table 19, symbol G)
Type: in vivo, green foxtail (Setaria viridis)
Conditions: amount of applied herbicide 320 g/ha
Outline: as §2

**Q.** CCCC(=O)Oc1c(C)nn(C)c(=O)c1-c1c(-c2ccc(F)cc2OCC)sc2cc(C)ccc12 [3-058] was tested. Which “G: green foxtail, herbicidal effect grade” value (shortened to “G: green foxtail”) did it give?
**A.** Its value is 2 (Herbicidal rate of 20% or more and less than 40%).

**Q.** For CCCC(=O)Oc1c(C)nn(C)c(=O)c1-c1c(-c2ccc(OC)cc2)sc2cc(OC)ccc12 [3-069], which “G: green foxtail” value is on record?
**A.** The value was 2 (Herbicidal rate of 20% or more and less than 40%).

Test system: blackgrass
Test: Test Example 5: herbicidal effect by foliage application, plastic box (Table 20, symbol J)
Type: in vivo, blackgrass (Alopecurus myosuroides)
Conditions: foliage application, 320 g/ha, three weeks after application
Outline: as §1

**Q.** For CCCC(=O)Oc1c(C)nn(C)c(=O)c1-c1c(-c2ccc(F)cc2OCC)sc2cc(C)ccc12 [3-058], which “J: blackgrass, herbicidal effect grade” value is on record?
**A.** The value was 5 (Herbicidal rate of 90% or more (almost completely withered)).

**Q.** Which “J: blackgrass, herbicidal effect grade” value does the source give for CCCC(=O)Oc1c(C)nn(C)c(=O)c1-c1c(-c2ccc(OC)cc2)sc2cc(OC)ccc12 [3-069] here?
**A.** The value was 0 (Herbicidal rate of 5% or less (almost no effect)).

Test system: redroot pigweed
Test: Test Example 5: herbicidal effect by foliage application, plastic box (Table 20, symbol N)
Type: in vivo, redroot pigweed (Amaranthus retroflexus)
Conditions: foliage application, 320 g/ha, three weeks after application
Outline: as §1

**Q.** CCCC(=O)Oc1c(C)nn(C)c(=O)c1-c1c(-c2ccc(F)cc2OCC)sc2cc(C)ccc12 [3-058] was tested. Which “N: redroot pigweed, herbicidal effect grade” value (from here on “N: redroot pigweed”) did it give?
**A.** Its value is 4 (Herbicidal rate of 70% or more and less than 90%).

**Q.** How did the “N: redroot pigweed” value turn out when CCCC(=O)Oc1c(C)nn(C)c(=O)c1-c1c(-c2ccc(OC)cc2)sc2cc(OC)ccc12 [3-069] was run?
**A.** The value was 5 (Herbicidal rate of 90% or more (almost completely withered)).

Test system: southern crabgrass
Test: Test Example 5: herbicidal effect by foliage application, plastic box (Table 20, symbol F)
Type: in vivo, southern crabgrass (Digitaria ciliaris)
Conditions: foliage application, 320 g/ha, three weeks after application
Outline: as §1

**Q.** How did the “F: southern crabgrass” value turn out when CCCC(=O)Oc1c(C)nn(C)c(=O)c1-c1c(-c2ccc(F)cc2OCC)sc2cc(C)ccc12 [3-058] was run?
**A.** The value was 5 (Herbicidal rate of 90% or more (almost completely withered)).

**Q.** CCCC(=O)Oc1c(C)nn(C)c(=O)c1-c1c(-c2ccc(OC)cc2)sc2cc(OC)ccc12 [3-069] was tested. Which “F: southern crabgrass” value did it give?
**A.** The value was 0 (Herbicidal rate of 5% or less (almost no effect)).

Test system: persian speedwell
Test: Test Example 5: herbicidal effect by foliage application, plastic box (Table 20, symbol R)
Type: in vivo, Persian speedwell (Veronica persica)
Conditions: foliage application, 320 g/ha, three weeks after application
Outline: as §1

**Q.** CCCC(=O)Oc1c(C)nn(C)c(=O)c1-c1c(-c2ccc(F)cc2OCC)sc2cc(C)ccc12 [3-058] was tested. Which “R: persian speedwell, herbicidal effect grade” value did it give?
**A.** Its value is 5 (Herbicidal rate of 90% or more (almost completely withered)).

**Q.** How did the “R: persian speedwell, herbicidal effect grade” value turn out when CCCC(=O)Oc1c(C)nn(C)c(=O)c1-c1c(-c2ccc(OC)cc2)sc2cc(OC)ccc12 [3-069] was run?
**A.** Its value is 5 (Herbicidal rate of 90% or more (almost completely withered)).

Test system: barnyard grass
Test: Test Example 4: herbicidal effect by soil treatment (Table 19, symbol H)
Type: in vivo, barnyard grass (Echinochloa crus-galli)
Conditions: amount of applied herbicide 320 g/ha
Outline: as §2

**Q.** With CCCC(=O)Oc1c(C)nn(C)c(=O)c1-c1c(-c2ccc(F)cc2OCC)sc2cc(C)ccc12 [3-058] as the molecule, how does the “H: barnyard grass, herbicidal effect grade” value read?
**A.** Its value is 0 (Herbicidal rate of 5% or less (almost no effect)).

**Q.** How did the “H: barnyard grass, herbicidal effect grade” value turn out when CCCC(=O)Oc1c(C)nn(C)c(=O)c1-c1c(-c2ccc(OC)cc2)sc2cc(OC)ccc12 [3-069] was run?
**A.** Its value is 0 (Herbicidal rate of 5% or less (almost no effect)).

Test system: blackgrass
Test: Test Example 4: herbicidal effect by soil treatment (Table 19, symbol J)
Type: in vivo, blackgrass (Alopecurus myosuroides)
Conditions: amount of applied herbicide 320 g/ha
Outline: as §2

**Q.** How did the “J: blackgrass, herbicidal effect grade” value turn out when CCCC(=O)Oc1c(C)nn(C)c(=O)c1-c1c(-c2ccc(F)cc2OCC)sc2cc(C)ccc12 [3-058] was run?
**A.** Its value is 3 (Herbicidal rate of 40% or more and less than 70%).

**Q.** With CCCC(=O)Oc1c(C)nn(C)c(=O)c1-c1c(-c2ccc(OC)cc2)sc2cc(OC)ccc12 [3-069] as the molecule, how does the “J: blackgrass, herbicidal effect grade” value read?
**A.** The value was 0 (Herbicidal rate of 5% or less (almost no effect)).

Test system: redroot pigweed
Test: Test Example 4: herbicidal effect by soil treatment (Table 19, symbol N)
Type: in vivo, redroot pigweed (Amaranthus retroflexus)
Conditions: amount of applied herbicide 320 g/ha
Outline: as §2

**Q.** CCCC(=O)Oc1c(C)nn(C)c(=O)c1-c1c(-c2ccc(F)cc2OCC)sc2cc(C)ccc12 [3-058] was tested. Which “N: redroot pigweed” value did it give?
**A.** Its value is 5 (Herbicidal rate of 90% or more (almost completely withered)).

**Q.** For CCCC(=O)Oc1c(C)nn(C)c(=O)c1-c1c(-c2ccc(OC)cc2)sc2cc(OC)ccc12 [3-069], which “N: redroot pigweed” value is on record?
**A.** Its value is 0 (Herbicidal rate of 5% or less (almost no effect)).

Test system: windgrass
Test: Test Example 4: herbicidal effect by soil treatment (Table 19, symbol L)
Type: in vivo, windgrass (Apera spica-venti)
Conditions: amount of applied herbicide 320 g/ha
Outline: as §2

**Q.** With CCCC(=O)Oc1c(C)nn(C)c(=O)c1-c1c(-c2ccc(F)cc2OCC)sc2cc(C)ccc12 [3-058] as the molecule, how does the “L: windgrass, herbicidal effect grade” value read?
**A.** The value was 5 (Herbicidal rate of 90% or more (almost completely withered)).

**Q.** How did the “L: windgrass, herbicidal effect grade” value turn out when CCCC(=O)Oc1c(C)nn(C)c(=O)c1-c1c(-c2ccc(OC)cc2)sc2cc(OC)ccc12 [3-069] was run?
**A.** The value was 0 (Herbicidal rate of 5% or less (almost no effect)).

Test system: barnyard grass
Test: Test Example 3: herbicidal effect by foliage application, Wagner pot (Table 18, symbol H)
Type: in vivo, barnyard grass (Echinochloa crus-galli)
Conditions: 320 g/ha
Outline: (§3)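 Plants were sown in alluvial soil held under 0.1–0.5 cm standing water and grown 14 days in a greenhouse at 25–30 °C. An emulsifiable formulation, water-diluted to the set dose, was then sprayed onto the foliage, and effects were scored three weeks later using previously defined criteria.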

**Q.** For CCCC(=O)Oc1c(C)nn(C)c(=O)c1-c1c(-c2ccc(F)cc2OCC)sc2cc(C)ccc12 [3-058], which “herbicidal effect on barnyard grass (H)” value is on record?
**A.** Its value is 5 (Herbicidal rate of 90% or more (almost completely withered)).

**Q.** With CCCC(=O)Oc1c(C)nn(C)c(=O)c1-c1c(-c2ccc(OC)cc2)sc2cc(OC)ccc12 [3-069] as the molecule, how does the “herbicidal effect on barnyard grass (H)” value read?
**A.** Its value is 0 (Herbicidal rate of 5% or less (almost no effect)).

Test system: green foxtail
Test: Test Example 5: herbicidal effect by foliage application, plastic box (Table 20, symbol G)
Type: in vivo, green foxtail (Setaria viridis)
Conditions: foliage application, 320 g/ha, three weeks after application
Outline: as §1

**Q.** With CCCC(=O)Oc1c(C)nn(C)c(=O)c1-c1c(-c2ccc(F)cc2OCC)sc2cc(C)ccc12 [3-058] as the molecule, how does the “G: green foxtail” value read?
**A.** Its value is 5 (Herbicidal rate of 90% or more (almost completely withered)).

**Q.** CCCC(=O)Oc1c(C)nn(C)c(=O)c1-c1c(-c2ccc(OC)cc2)sc2cc(OC)ccc12 [3-069] was tested. Which “G: green foxtail” value did it give?
**A.** The value was 0 (Herbicidal rate of 5% or less (almost no effect)).

Test system: late watergrass
Test: Test Example 1: herbicidal activity, application before weed generation under submerged conditions (Table 16, symbol A)
Type: in vivo, late watergrass (Echinochloa oryzicola)
Conditions: amount of applied herbicide 320 g/ha
Outline: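 Alluvial soil was flooded to 4 cm depth, weed seeds were sown mixed and 2.5-leaf rice seedlings were transplanted. On sowing day, the compound's emulsion, diluted in water to a set dose, was applied to the water surface. Plants grew at 25–30 °C and were scored 0–5 after three weeks.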

**Q.** For CCCC(=O)Oc1c(C)nn(C)c(=O)c1-c1c(-c2ccc(F)cc2OCC)sc2cc(C)ccc12 [3-058], which “Herbicidal effect, A: late watergrass” value is on record?
**A.** The value was 5 (Herbicidal rate of 90% or more (almost completely withered)).

**Q.** For CCCC(=O)Oc1c(C)nn(C)c(=O)c1-c1c(-c2ccc(OC)cc2)sc2cc(OC)ccc12 [3-069], which “Herbicidal effect, A: late watergrass” value is on record?
**A.** Its value is 0 (Herbicidal rate of 5% or less (almost no effect)).

Test system: Chinese sprangletop
Test: Test Example 3: herbicidal effect by foliage application, Wagner pot (Table 18, symbol D)
Type: in vivo, chinese sprangletop (Leptochloa chinensis)
Conditions: 320 g/ha
Outline: as §3

**Q.** Which “herbicidal effect on Chinese sprangletop (D)” value does the source give for CCCC(=O)Oc1c(C)nn(C)c(=O)c1-c1c(-c2ccc(F)cc2OCC)sc2cc(C)ccc12 [3-058] here?
**A.** Its value is 4 (Herbicidal rate of 70% or more and less than 90%).

**Q.** How did the “herbicidal effect on Chinese sprangletop (D)” value turn out when CCCC(=O)Oc1c(C)nn(C)c(=O)c1-c1c(-c2ccc(OC)cc2)sc2cc(OC)ccc12 [3-069] was run?
**A.** Its value is 0 (Herbicidal rate of 5% or less (almost no effect)).
